Experimental data taken from ChEMBL document CHEMBL1157777, “Identification of hits as matrix-2 protein inhibitors through the focused screening of a small primary amine library” (J Med Chem, 2010).
Activity calls are given as the source filed them. The calls are words filed in the database; no cut-off is given here.

Key:
[1] = Inhibition of avian influenza virus H5N1 matrix 2 protein expressed in HEK293 cells assessed as cell viability after 24 hrs; format: cell-based; conditions: Influenza A virus, H5N1, HEK293, 24 h
[2] = test system: Influenza A virus; assay: Antiviral activity against Influenza A virus (A/Hong Kong/8/1968([…])) infected in MDCK cells; format: functional, organism-based
[3] = Inhibition of avian influenza virus (H5N1) matrix 2 protein expressed in HEK293 cells by path clamp electrophysiology method; format: cell-based; conditions: Influenza A virus
[4] = test system: HEK293; assay: Inhibition of avian influenza virus (H5N1) matrix 2 protein expressed in HEK293 cells at 50 uM by path clamp electrophysiology method; format: cell-based; conditions: Influenza A virus

Row | SMILES | IC50 [1] [µM] | IC50 [2] [µM] | IC50 [3] [µM] | inhibition [4]
1 | NC12CC3CC(CC1C3)C2 | 19 | 38.2 | 13.5 | –
2 | CC(C)(C)C1CCC(N)CC1 (centres undefined) | 3.37 | 33.5 | 4.8 | –
3 | C[C@H]1[C@H](N)C[C@@H]2C[C@H]1C2(C)C | 5.96 | 1.36 | 4.3 | –
4 | C[C@@H]1[C@@H](N)C[C@H]2C[C@@H]1C2(C)C | 23 | 6.02 | 6.8 | –
5 | CC1(C)[C@@H]2CC[C@H](CN)[C@H]1C2 | 25.5 | 2.3 | 4.4 | –
6 | NC12CC3CC(CC(C3)C1)C2 [AMANTADINE] | 3.52 | 5.96 | 8.8 | inactive
